Measurements published in patent US9737498B2, “Method for treating an inflammation or lesion caused by a virus” (priority 2001, dated 2017).
Read-outs that look alike come from different tables or passages of the source.

Experiments:
[1] = test system: Herpes simplex virus 1 (HSV-1); test: Growth inhibition of HSV-1 in vitro (Vero cells, cytopathic effect / plaques); type: cell-based; settings: for Upper pH limit at which HSV-1 is inactivated by the alcohol: alcohol 0.2% by volume, pH adjusted with HCl, tested pH 4.0 to 6.8 at increments of 0.2, incubated with the virus for 2 minutes; for Virus growth (HSV-1): pH 3.5 (HCl)
[2] = test system: VSV (a lipid-coated virus); settings: cited from earlier work
[3] = test system: "enveloped" viruses (herpesvirus, orthomyxovirus and rhabdovirus (Rabies virus)); settings: room temperature, aqueous solutions of pure acids; cited from earlier work
rhinoviruses = settings: foams; cited from earlier work
[4] = test system: naked viruses (e.g., poliovirus type 1); settings: alcohol alone; cited from earlier work

CCCCO [n-butanol]
Upper pH limit at which HSV-1 is inactivated by the alcohol [1]: 4.6

CO [methanol]
Upper pH limit at which HSV-1 is inactivated by the alcohol [1]: 4.6

butanol [reference compound]
Virucidal activity against VSV [2]: fairly inactive

CCC(O)CO (stereo not drawn) [1,2-butanediol]
Upper pH limit at which HSV-1 is inactivated by the alcohol [1]: 4.2

CC(=O)C(=O)O [pyruvic acid]
Effectiveness in vitro against enveloped viruses [3]: effective

O=C(O)CCC(=O)O [succinic acid]
Effectiveness in vitro against enveloped viruses [3]: effective

CCO [ethanol]
Virus growth (HSV-1) ([1]; 1.0% ethanol, 5 minute exposure, diluted 1/16 with Eagles medium): +
Virus growth (HSV-1) ([1]; 1.0% ethanol, 5 minute exposure, diluted 1/64 with Eagles medium): +
Virus growth (HSV-1) ([1]; 1.0% ethanol, 5 minute exposure, diluted ¼ with Eagles medium): +
Virus growth (HSV-1) ([1]; 1.0% ethanol, 5 minute exposure, undiluted): +
Virus growth (HSV-1) ([1]; 1.0% ethanol, 10 minute exposure, diluted 1/16 with Eagles medium): +
Virus growth (HSV-1) ([1]; 1.0% ethanol, 10 minute exposure, diluted 1/64 with Eagles medium): +
Virus growth (HSV-1) ([1]; 1.0% ethanol, 10 minute exposure, diluted ¼ with Eagles medium): +
Virus growth (HSV-1) ([1]; 1.0% ethanol, 10 minute exposure, undiluted): −
Inhibition of growth of the virus (HSV-1) ([1]; 2.5% ethanol solution diluted by ¼, pH 3.5, exposure time 10 minutes): effectively inhibited growth of the virus
Virus growth (HSV-1) ([1]; 2.5% ethanol, 5 minute exposure, diluted 1/16 with Eagles medium): +
Virus growth (HSV-1) ([1]; 2.5% ethanol, 5 minute exposure, diluted 1/64 with Eagles medium): +
Virus growth (HSV-1) ([1]; 2.5% ethanol, 5 minute exposure, diluted ¼ with Eagles medium): +
Virus growth (HSV-1) ([1]; 2.5% ethanol, 5 minute exposure, undiluted): +
Virus growth (HSV-1) ([1]; 2.5% ethanol, 10 minute exposure, diluted 1/16 with Eagles medium): +
Virus growth (HSV-1) ([1]; 2.5% ethanol, 10 minute exposure, diluted 1/64 with Eagles medium): +
Virus growth (HSV-1) ([1]; 2.5% ethanol, 10 minute exposure, diluted ¼ with Eagles medium): −
Virus growth (HSV-1) ([1]; 2.5% ethanol, 10 minute exposure, undiluted): −
Virus growth (HSV-1) ([1]; 5.0% ethanol, 5 minute exposure, diluted 1/16 with Eagles medium): +
Virus growth (HSV-1) ([1]; 5.0% ethanol, 5 minute exposure, diluted 1/64 with Eagles medium): +
Virus growth (HSV-1) ([1]; 5.0% ethanol, 5 minute exposure, diluted ¼ with Eagles medium): +
Virus growth (HSV-1) ([1]; 5.0% ethanol, 5 minute exposure, undiluted): +
Virus growth (HSV-1) ([1]; 5.0% ethanol, 10 minute exposure, diluted 1/16 with Eagles medium): +
Virus growth (HSV-1) ([1]; 5.0% ethanol, 10 minute exposure, diluted 1/64 with Eagles medium): +
Virus growth (HSV-1) ([1]; 5.0% ethanol, 10 minute exposure, diluted ¼ with Eagles medium): −
Virus growth (HSV-1) ([1]; 5.0% ethanol, 10 minute exposure, undiluted): −
Virus growth (HSV-1) ([1]; 10% ethanol, 5 minute exposure, diluted 1/16 with Eagles medium): +
Virus growth (HSV-1) ([1]; 10% ethanol, 5 minute exposure, diluted 1/64 with Eagles medium): +
Virus growth (HSV-1) ([1]; 10% ethanol, 5 minute exposure, diluted ¼ with Eagles medium): +
Virus growth (HSV-1) ([1]; 10% ethanol, 5 minute exposure, undiluted): +
Virus growth (HSV-1) ([1]; 10% ethanol, 10 minute exposure, diluted 1/16 with Eagles medium): +
Virus growth (HSV-1) ([1]; 10% ethanol, 10 minute exposure, diluted 1/64 with Eagles medium): +
Virus growth (HSV-1) ([1]; 10% ethanol, 10 minute exposure, diluted ¼ with Eagles medium): −
Virus growth (HSV-1) ([1]; 10% ethanol, 10 minute exposure, undiluted): −
Inhibition of the virus (HSV-1) ([1]; 12.5% ethanol solution, pH 3.5, exposure time of five minutes): inhibited the virus
Virus growth (HSV-1) ([1]; 12.5% ethanol, 5 minute exposure, diluted 1/16 with Eagles medium): +
Virus growth (HSV-1) ([1]; 12.5% ethanol, 5 minute exposure, diluted 1/64 with Eagles medium): +
Virus growth (HSV-1) ([1]; 12.5% ethanol, 5 minute exposure, diluted ¼ with Eagles medium): −
Virus growth (HSV-1) ([1]; 12.5% ethanol, 5 minute exposure, undiluted): −
Virus growth (HSV-1) ([1]; 12.5% ethanol, 10 minute exposure, diluted 1/16 with Eagles medium): −
Virus growth (HSV-1) ([1]; 12.5% ethanol, 10 minute exposure, diluted 1/64 with Eagles medium): +
Virus growth (HSV-1) ([1]; 12.5% ethanol, 10 minute exposure, diluted ¼ with Eagles medium): −
Virus growth (HSV-1) ([1]; 12.5% ethanol, 10 minute exposure, undiluted): −
Upper pH limit at which HSV-1 is inactivated by the alcohol [1]: 4.4
Effectiveness in killing rhinoviruses (rhinoviruses): not effective
Activity against naked viruses [4]: did not exhibit sufficient activities
Virucidal activity against VSV ([2]; pH of about 4 to 5 at 4° C., aqueous solution of biologically active protein): fairly inactive

O=C(O)CC(O)C(=O)O (stereo not drawn) [malic acid]
Effectiveness in vitro against enveloped viruses [3]: effective

CCCO [propanol, reference compound]
Activity against naked viruses [4]: did not exhibit sufficient activities

CC(O)C(C)O (stereo not drawn) [2,3-butanediol]
Upper pH limit at which HSV-1 is inactivated by the alcohol [1]: 4.6

O=C(O)CO [glycolic acid]
Virus growth at sample dilution (HSV-1) ([1]; aqueous acid solution pH 3.8, exposure of 4 minutes, dilution 1/16): −
Virus growth at sample dilution (HSV-1) ([1]; aqueous acid solution pH 3.8, exposure of 4 minutes, dilution 1/64): −
Virus growth at sample dilution (HSV-1) ([1]; aqueous acid solution pH 3.8, exposure of 4 minutes, dilution ¼): −
Virus growth at sample dilution (HSV-1) ([1]; aqueous acid solution pH 3.8, exposure of 4 minutes, undiluted): −
Virus growth at sample dilution (HSV-1) ([1]; aqueous acid solution pH 4.0, exposure of 4 minutes, dilution 1/16): +
Virus growth at sample dilution (HSV-1) ([1]; aqueous acid solution pH 4.0, exposure of 4 minutes, dilution 1/64): +
Virus growth at sample dilution (HSV-1) ([1]; aqueous acid solution pH 4.0, exposure of 4 minutes, dilution ¼): +
Virus growth at sample dilution (HSV-1) ([1]; aqueous acid solution pH 4.0, exposure of 4 minutes, undiluted): +
Virus growth at sample dilution (HSV-1) ([1]; aqueous acid solution pH 4.2, exposure of 4 minutes, dilution 1/16): +
Virus growth at sample dilution (HSV-1) ([1]; aqueous acid solution pH 4.2, exposure of 4 minutes, dilution 1/64): +
Virus growth at sample dilution (HSV-1) ([1]; aqueous acid solution pH 4.2, exposure of 4 minutes, dilution ¼): +
Virus growth at sample dilution (HSV-1) ([1]; aqueous acid solution pH 4.2, exposure of 4 minutes, undiluted): −
Virus growth at sample dilution (HSV-1) ([1]; aqueous acid solution pH 6.0, exposure of 4 minutes, dilution 1/16): +
Virus growth at sample dilution (HSV-1) ([1]; aqueous acid solution pH 6.0, exposure of 4 minutes, dilution 1/64): +
Virus growth at sample dilution (HSV-1) ([1]; aqueous acid solution pH 6.0, exposure of 4 minutes, dilution ¼): +
Virus growth at sample dilution (HSV-1) ([1]; aqueous acid solution pH 6.0, exposure of 4 minutes, undiluted): +

O=C(O)CC(O)(CC(=O)O)C(=O)O [citric acid]
Effectiveness in vitro against enveloped viruses [3]: effective
